Reference: patent publication US20100215618A1, “NOVEL COMPOUNDS - 644” (Arrow Therapeutics Limited, priority 2009, published 2010)
Like-named read-outs stand apart in the source and are kept apart here.

Experiments:
[1] = test system: HCV genotype 1a replicon cells Htat2ANeo; test: 1a Replicon Assay (cell-based anti-NS5a ELISA); settings: Hepatitis C virus, 72 h
Protocol: HCV genotype la replicon cells Htat2ANeo (University of Texas), containing neomycin phosphotransferase fusion protein and EMCV-IRES driven HCV polyprotein with cell culture adaptive mutations, and control cells, Et2AN.
Cells were cultured at 37° C./5% CO2 and split twice a week. G418 at 0.5 mg/ml and Blastocidin at 2 mg/ml were added to the culture medium but not the assay medium.
The culture medium consisted of DMEM with […] glucose and Glutamax (Gibco 61965-026) supplemented with 1× non-essential amino acids (Invitrogen 11140-035), 0.5 mg/ml G418 (Invitrogen 10131-027), 2 mg/ml Blastocidin (PAA) and 10% is Australian foetal calf serum (Invitrogen 10099-141).
Replicon and control cells were trypsinised and counted. Replicon cells were diluted to 90,000 cells/ml and 100 μl of this used to seed columns 2-4, […] and 10-12 of a black, clear bottom 96-well plate for every three compounds to be tested for IC50. Control cells were diluted to 60,000 cells/ml and 100 μl of this used to seed columns 1, 5 and 9 of the plate. Well H1 was left empty as the blank. Plates were then incubated at 37° C./5% CO2 for 24 h.
On the following day compound dilutions were prepared in medium at twice their desired final concentration in a clear round bottomed plate.
Controls and compounds were transferred from the dilution plate to the assay plates (containing the cells) at 100 μl/well in quadruplicate wells, one well containing control cells and 3 wells containing replicon cells.
Exception: no compound was added to row H of the plate and 100 μl of 1% DMSO was added to these instead. Plates were then incubated at 37° C. with 5% CO2 for 72 h. At the end of the incubation time, any reduction in cell viability was assayed and a cell-based enzyme linked immunosorbent assay (ELISA) was performed. The media/compound was removed from all wells and replaced with 100 μl/well serum-free media and 20 μl/well Cell Titre Blue (Promega G8081). Following incubation at 37° C./5% CO2 for 2 h plates were read on a microplate fluorometer (Molecular Devices) using an excitation of 570 nm and an emission of 590 nm The TD50, the concentration of drug required to reduce 50% of Cell Titre Blue relative to the DMSO controls, was calculated by plotting the fluorescence at 590 nm after substraction of background against drug concentration.
The media/Cell Titre Blue was removed and plates washed in PBS and gently tapped dry before addition of 50 μL per well of 75% acetone/25% methanol mixture for 3 minutes. The fixative was then discarded and wells were washed with PBS before addition of 100 μl/well of blocking solution (2% non-fat dry milk and 0.05% Tween-20 in 0.85% NaCl). Plates were then incubated at 37° C. in a shaking incubator for 60 min. Blocking solution was discarded and 50 μl of mouse anti-NS5a antibody (Virostat 1877) at 1:100 dilution in blocking buffer was added to all wells. Plates were incubated at 37° C. in a shaking incubator for 90 min Antibody was then discarded and plates were washed 4 times by immersion in 0.85% NaCl/0.05% Tween-20. After washing plates were tapped dry gently and 50 μl of secondary antibody (Dako P0260 Rabbit anti-mouse horseradish peroxidase) at 1:1000 dilution in blocking buffer was added to the wells. Plates were incubated at 37° C. in a shaking incubator for 60 min. Antibody was discarded and plates were washed 6 times by immersion in 0.85% NaCl/0.05% Tween-20 and once in PBS. Finally, 50 μl of substrate (SigmaFast ortho-phenylene diamine dihydrochloride (OPD)) was added per well and the colorimetric reaction was allowed to proceed in the dark for 5 to 15 minutes depending on the strength or the signal. The reaction was stopped by addition of 25 μl/well of 20% sulphuric acid. Plates were read on the SpectraMax microplate reader at 490 nm fixed wavelength. […]

[2] = test system: HCV replicon cells Huh 9B (genotype 1b); test: 1b Replicon Assay (luciferase readout); assay type: cell-based; settings: Hepatitis C virus, Huh 9B replicon cells, 72 h, luciferase activity
Protocol: HCV replicon cells Huh 9B (ReBlikon), containing the firefly luciferase-ubiquitin-neomycin phosphotransferase fusion protein and EMCV-IRES driven HCV polyprotein with cell culture adaptive mutations.
Cells were cultured at 37° C./5% CO2 and split twice a week. G418 at 0.5 mg/ml was added to the culture medium but not the assay medium.
The culture medium consisted of DMEM with […] glucose and Glutamax (Gibco 61965-026) supplemented with 1× non-essential amino acids (Invitrogen 11140-035), 0.5 mg/ml G418 (Invitrogen 10131-027) and 10% Australian foetal calf serum (Invitrogen 10099-141).
Replicon cells were trypsinised and counted. Cells were diluted to 100,000 cells/ml and 100 μl used to seed one opaque white 96-well plate (for the replicon assay) and one flat-bottomed clear plate (for the tox assay) for every five compounds to be tested for IC50. Wells G12 and H12 were left empty in the clear plate as the blank. Plates were then incubated at 37° C./5% CO2 for 24 h.
On the following day compound dilutions were prepared in medium at twice their desired final concentration in a clear round bottomed plate. All dilutions have a final DMSO concentration of 1%.
Controls and compounds were transferred from the dilution plates to the assay plates (containing the cells) at 100 μl/well in duplicate wells.
Exception: no compound was added to wells A1 and A2 of either plate and 100 μl of 1% DMSO was added to these instead. Plates were then incubated at 37° C./5% CO2 for 72 h.
At the end of the incubation time, the cells in the white plate were washed in PBS (100 μL per well) and dried by tapping before addition of 204 per well of lysis buffer (25 mM tris-phosphate, 8 mM MgCl2, 1 mM DTT, 1% Triton X-100, 15% glycerol; pH to 7.8 using KH2PO4 prior to Triton X-100 and glycerol addition). Aliquots of substrate (23.5 mM beetle luciferin (Promega E1603), 26 mM ATP (Sigma O-2060) in […] Tris buffer pH 7.8) were stored at −80° C. Prior to use, required amount of luciferin was thawed and diluted 1:50 in luciferase assay buffer (20 mM Tricine (Sigma T-0377), 1.07 mM magnesium carbonate hydroxide (Sigma M-5671), 0.1 mM EDTA (Sigma E-5134), 2.67 mM MgSO4(BDH 101514Y), 33.3 mM dithiothreitol (Sigma 150460) pH 7.8).
After 5-60 min incubation in lysis buffer at room temperature, a plate was inserted into the luminometer and 100 μl luciferase assay reagent was added by the injector of the luminometer. The signal was measured using a 1 second delay followed by a 4 second measurement programme. The IC50, the concentration of the drug required for reducing the replicon level by 50% in relation to the untreated cell control value, was calculated from the plot of the percentage reduction of the luciferase activity vs. drug concentration.

[3] = read-out: pIC50 1a Replicon (converted)
[4] = read-out: pIC50 1b Replicon (converted)

SMILES	IC50 ([1]; read-out: HCV IC50 Elisa 1a)	IC50 [1, 3]	IC50 ([2]; read-out: HCV IC50 1b Replicon)	IC50 [2, 4]
CCN(CC)[C@@H](C(=O)N1CCC[C@H]1c1ncc(-c2cccc(-c3ccc(C(=O)Nc4ccc(CN5CCS(=O)(=O)CC5)cc4)cc3)c2)[nH]1)c1ccccc1 [Example 38, 4-[3-[2-[(2S)-1-[(2R)-2-(diethylamino)-2-phenyl-acetyl]pyrrolidin-2-yl]-1H-imidazol-5-yl]phenyl]-N-[4-[(1,1-dioxo-1,4-thiazinan-4-yl)methyl]phenyl]benzamide]	314 nM	316 nM	2.87 nM	2.88 nM
CN(C)[C@@H](C(=O)N1CCC[C@H]1c1ncc(-c2cccc(-c3ccc(C(=O)Nc4ccc(CN5CCS(=O)(=O)CC5)cc4)cc3)c2)[nH]1)c1ccccc1 [Example 39, 4-[3-[2-[(2S)-1-[(2R)-2-(dimethylamino)-2-phenyl-acetyl]pyrrolidin-2-yl]-1H-imidazol-5-yl]phenyl]-N-[4-[(1,1-dioxo-1,4-thiazinan-4-yl)methyl]phenyl]benzamide]	1100 nM	1100 nM	4.81 nM	4.79 nM
CCCS(=O)(=O)N1CCN(Cc2ccc(NC(=O)c3ccc(-c4ccc(-c5cnc([C@@H]6CCCN6C(=O)[C@H](C)NC(=O)OC)[nH]5)cc4)cc3)cc2)CC1 [Example 41, Methyl N-[(1S)-1-methyl-2-oxo-2-[(2S)-2-[5-[4-[4-[[4-[(4-propylsulfonylpiperazin-1-yl)methyl]phenyl]carbamoyl]phenyl]phenyl]-1H-imidazol-2-yl]pyrrolidin-1-yl]ethyl]carbamate]	47 nM	46.8 nM	1.15 nM	1.15 nM
CCCS(=O)(=O)N1CCN(Cc2ccc(NC(=O)c3ccc(-c4ccc(-c5cnc([C@@H]6CCCN6C(=O)[C@@H](NC(=O)OC)c6ccccc6)[nH]5)cc4)cc3)cc2)CC1 [Example 42, Methyl N-[(1S)-2-oxo-1-phenyl-2-[(2S)-2-[5-[4-[4-[[4-[(4-propylsulfonylpiperazin-1-yl)methyl]phenyl]carbamoyl]phenyl]phenyl]-1H-imidazol-2-yl]pyrrolidin-1-yl]ethyl]carbamate]	97.4 nM	97.7 nM	0.05 nM	0.0537 nM
CCCS(=O)(=O)N1CCN(Cc2ccc(NC(=O)c3ccc(-c4ccc(-c5cnc([C@@H]6CCCN6C(=O)[C@H](NC(=O)OC)c6ccccc6)[nH]5)cc4)cc3)cc2)CC1 [Example 43, Methyl N-[(1R)-2-oxo-1-phenyl-2-[(2S)-2-[5-[4-[4-[[4-[(4-propylsulfonylpiperazin-1-yl)methyl]phenyl]carbamoyl]phenyl]phenyl]-1H-imidazol-2-yl]pyrrolidin-1-yl]ethyl]carbamate]	77.7 nM	77.6 nM	0.05 nM	0.055 nM
CCCS(=O)(=O)N1CCN(Cc2ccc(NC(=O)c3ccc(-c4ccc(-c5cnc([C@@H]6CCCN6C(=O)[C@@H](c6ccccc6)N(CC)CC)[nH]5)cc4)cc3)cc2)CC1 [Example 44, 4-[4-[2-[(2S)-1-[(2R)-2-(diethylamino)-2-phenyl-acetyl]pyrrolidin-2-yl]-1H-imidazol-5-yl]phenyl]-N-[4-[(4-propylsulfonylpiperazin-1-yl)methyl]phenyl]benzamide]	50.5 nM	50.1 nM	0.01 nM	0.0145 nM
CCCS(=O)(=O)N1CCN(Cc2ccc(NC(=O)c3ccc(-c4ccc(-c5cnc([C@@H]6CCCN6C(=O)[C@@H](c6ccccc6)N(C)C)[nH]5)cc4)cc3)cc2)CC1 [Example 45, 4-[4-[2-[(2S)-1-[(2R)-2-(dimethylamino)-2-phenyl-acetyl]pyrrolidin-2-yl]-1H-imidazol-5-yl]phenyl]-N-[4-[(4-propylsulfonylpiperazin-1-yl)methyl]phenyl]benzamide]	79.5 nM	79.4 nM	0.03 nM	0.0263 nM
COC(=O)N[C@H](C(=O)N1CCCC[C@H]1c1ncc(-c2ccc(-c3ccc(C(=O)Nc4ccc(CN5CCS(=O)(=O)CC5)cc4)cc3)cc2)[nH]1)C(C)C [Example 50, methyl N-[(1S)-1-[(2S)-2-[5-[4-[4-[[4-[(1,1-dioxo-1,4-thiazinan-4-yl)methyl]phenyl]carbamoyl]phenyl]phenyl]-1H-imidazol-2-yl]piperidine-1-carbonyl]-2-methyl-propyl]carbamate]	28.2 nM	28.2 nM	2.98 nM	2.95 nM
COC(=O)N[C@H](C(=O)N1CCCC[C@H]1c1ncc(-c2ccc(-c3ccc(C(=O)Nc4ccc(CN5CCS(=O)(=O)CC5)cc4)cc3)cc2)[nH]1)c1ccccc1 [Example 51, Methyl N-[(1S)-2-[(2S)-2-[5-[4-[4-[[4-[(1,1-dioxo-1,4-thiazinan-4-yl)methyl]phenyl]carbamoyl]phenyl]phenyl]-1H-imidazol-2-yl]-1-piperidyl]-2-oxo-1-phenyl-ethyl]carbamate]	95 nM	95.5 nM	0.79 nM	0.794 nM
CC(C)(C)OC(=O)N[C@H](C(=O)N1CCCC[C@H]1c1ncc(-c2ccc(-c3ccc(C(=O)Nc4ccc(CN5CCS(=O)(=O)CC5)cc4)cc3)cc2)[nH]1)c1ccccc1 [Example 52, tert-Butyl N-[(1S)-2-[(2S)-2-[5-[4-[4-[[4-[(1,1-dioxo-1,4-thiazinan-4-yl)methyl]phenyl]carbamoyl]phenyl]phenyl]-1H-imidazol-2-yl]-1-piperidyl]-2-oxo-1-phenyl-ethyl]carbamate]	185 nM	186 nM	0.41 nM	0.407 nM
